{"source": "paper PMC5489165", "about": "“Identification of benzazole compounds that induce HIV-1 transcription” (PLoS ONE, 2017)", "key": {"[1]": {"test_system": "Epstein-Barr virus (EBV) in Raji cells", "assay": "EBV activation assay in Raji cells (BZLF1 qRT-PCR)", "assay_type": "cell-based"}, "HIV-1 RNA in ACH-2 cells": {"test_system": "HIV-1 RNA in ACH-2 cells", "assay": "HIV activation assay in ACH-2 model of latency (qRT-PCR)", "assay_type": "cell-based", "settings": "24 h; for Induction of HIV-1 transcription in ACH-2 cells (in words): 30 μM, qRT-PCR (Fig 3); for EC10X, ACH-2: concentration for 10-fold increase in HIV-1 RNA by qRT-PCR", "protocol": "(§1) ACH-2 cells were maintained in RPMI-1640 medium without phenol red and with 10% FBS at 37°C in a 5% CO2 atmosphere. Cells were plated at 5000/well in 96-well round-bottom plated and test compounds were added in a final concentration of 0.5% DMSO, in duplicate. Cells were incubated for 24 h at 37°C, 5% CO2, then pelleted at 2000 × g for 5 min followed by washing in 0.1 ml PBS. RNA was isolated using Invitrogen PureLink 96 RNA Purification Kit with vacuum manifold per the manufacturer’s instructions, including DNase I treatment. HIV-1 transcripts were detected using TaqMan® RNA-to-CT™ 1-step kit (Applied Biosystems, Foster City, CA) and primers/probe specific to gag (SK38 forward: 5ʹ-[…]-3ʹ; SK39 reverse: 5ʹ-[…]-3ʹ; SK19 probe: 5ʹ-6FAM […] TAMRA-3ʹ) or tat (forward: 5ʹ-[…]-3ʹ; reverse: 5ʹ-[…]-3ʹ; probe: 5ʹ-6FAM […]-3ʹ). GAPDH RNA was monitored in all assays as an endogenous control for selectivity using a pre-developed TaqMan assay reagent (Applied Biosystems, Foster City, CA). RNA was quantified on an Applied Biosystems 7900HT. PCR replicates were performed for each biological replicate. Viral RNA expression was normalized to GAPDH RNA and data are expressed as the change from vehicle-only control wells."}, "[2]": {"test_system": "NF-κB response element reporter in Jurkat cells", "assay": "NF-κB-responsive Fluc reporter in Jurkat cells", "assay_type": "cell-based, human", "settings": "stably-transfected Jurkat cells, 4 h", "from_the_text": "The vector pGL4.32[luc2P/NF-κB-RE/Hygro] was purchased from Promega (Madison, WI), encoding 5 copies of a NF-κB response element driving expression of synthetic firefly luciferase gene, luc2, including a PEST destabilization sequence. Jurkat cells were transfected with this vector using a Gene Pulser® II (Biorad, Hercules, CA) with a 0.4 cm gap cuvette at 0.2 kV and 960 μF. Cells were allowed to recover for three days in RPMI-1640 with 10% FBS and 1% penicillin/streptomycin before selection with 200 μg/ml Hygromycin B for one month. Pooled, stably-transfected cells were plated at 50,000/well in 96-well plates and treated with test compounds in a final concentration of 0.5% DMSO for 4 h at 37°C. Luciferase activity was determined by adding one volume 2× steadylite plus reagent (Perkin Elmer, Waltham, MA) and reading on a ViewLux microplate imager."}, "[3]": {"assay": "Microsome assay, human liver microsomes", "assay_type": "in vitro ADME", "protocol": "(§2) Human and mouse liver microsomes were obtained from XenoTech, LLC (Kansas City, KS). The reaction mixture was composed of liver microsomes (0.5 mg/mL), 20 mM Tris-HCl pH 7.4, 2.5 mM MgCl2, and an NADPH generating system (0.1 mM NADP, 1.2 mM glucose-6-phosphate and 0.3 units/ml glucose-6-phophate dehydrogenase). […] Test compounds were added to the microsome reaction and loss of parent molecule was monitored after 1 h by LC/MS/MS."}, "HIV-1 RNA in U1 cells": {"test_system": "HIV-1 RNA in U1 cells", "assay": "HIV-1 transcription in U1 cells (qRT-PCR)", "assay_type": "cell-based", "settings": "30 μM, 24 h, qRT-PCR (Fig 3)", "protocol": "as §1\nFig 3 Compounds 1 and 2 induce HIV-1 transcription in ACH-2 and U1. […] RNA was prepared and HIV expression was monitored by qRT-PCR. […]"}, "[4]": {"assay": "Microsome assay, mouse liver microsomes", "assay_type": "in vitro ADME", "protocol": "as §2"}, "[5]": {"test_system": "HIV-1 transcription in 24STNLSG cells", "assay": "SEAP assay in 24STNLSG cells (latency reactivation)", "assay_type": "cell-based", "settings": "72 h; for Max. fold induction, 24STNLSG: SEAP reporter; for EC2X, 24STNLSG: concentration for 2-fold increase in SEAP activity", "protocol": "SupT1-derived 24STNLSG cells were plated at 100,000 cells/well in black bottom/black walled 96-well plates in 50 μl RPMI-1640 medium (without phenol red) containing 10% FBS. Compound was added in 50 μl of identical medium using three-fold dose-response dilutions, in duplicate. […] TNF-α, a nuclear factor-κB (NF-κB) activator known to induce HIV- expression in cellular models, was used as a positive control. Plates were incubated for 72 h at 37°C, 5% CO2. Plates were then sealed and heated to 65°C for 30 min. Plates were brought to room temperature and 50 μl assay buffer (1 mM MgCl2, 10 mM L-homoarginine, 1 M diethylamine hydrochloride) was added to each well and incubated for 5 min at room temperature. To each well, 50 μl of CSPD Substrate (0.4 mM Ready-to-Use with Sapphire-II Enhancer; Applied Biosystems, Foster City, CA) was added. Plates were incubated for 20 min at room temperature and read on a ViewLux microplate imager (Perkin Elmer, Waltham, MA). Curves were fit by non-linear regression using Prism software (GraphPad, San Diego, CA)."}, "[6]": {"assay": "Cytotoxicity assay in SupT1 cells (ATP, CellTiter-Glo)", "assay_type": "cell-based", "settings": "human; for selectivity ratio at 72 h: read-out: Selective window, CC50 versus EC2X", "protocol": "SupT1 cells were plated at 100,000 per well in 96-well, white-walled plates with serial dilutions of test compound in a total volume of 100 μl RPMI-1640 medium containing 10% FBS and 0.5% DMSO. PBMCs were plated similarly at 50,000 cells/well and stimulated by addition of 40 μg/ml PHA and 80 ng/ml interleukin-2 (IL-2). Cells were incubated for 72 h at 37°C, 5% CO2. ATP was quantified using the CellTiter-Glo Luminescent Cell Viability Assay (Promega, Madison, WI) on a ViewLux microplate imager (Perkin Elmer, Waltham, MA). Percent cytotoxicity was determined relative to vehicle-only treated wells."}, "IL-2 secretion by PBMCs": {"test_system": "IL-2 secretion by PBMCs", "assay": "IL-2 ELISA in PBMCs", "assay_type": "cell-based, human", "settings": "24 h", "protocol": "Cryopreserved PBMCs from a single donor were thawed in RPMI-1640 plus 10% FBS. PBMCs were plated at 5×10^4/well in 96-well plates and compound was added with a final concentration of 0.5% DMSO. Plates were incubated for 24 h at 37°C, 5% CO2. Interleukin-2 was quantified using Human IL-2 DuoSet ELISA (R&D Systems, Minneapolis, MN). Raw data were converted to ng/ml IL-2 using a standard curve obtained in parallel."}, "[7]": {"settings": "SupT1 cells, ATP quantification, 72 h, read-out: CC50, SupT1"}}, "note": "Where two headings read alike, the source gives them in different places."}
{"smiles": "Nc1ccc2[nH]c(-c3ccc(-c4nc5cc(N)ccc5o4)cc3)nc2c1", "note": "[Compound 1, 2-(4-(5-amino-1H-benzimidazol-2-yl)phenyl)benzoxazol-5-amine]", "values": [{"measurement": "Effect on BLZF1 mRNA (EBV)", "setting": "[1]; Raji cells, 24 h, up to 100 μM", "result": "little effect"}, {"measurement": "Induction of HIV-1 transcription in ACH-2 cells (in words)", "setting": "HIV-1 RNA in ACH-2 cells", "result": "induced HIV-1 transcription"}, {"measurement": "EC10X, ACH-2", "setting": "HIV-1 RNA in ACH-2 cells", "result": "0.39 ± 0.12", "unit": "µM"}, {"measurement": "Induction of NF-κB driven reporter (in words)", "setting": "[2]", "result": "Neither Compound 1 nor Compound 2 induced"}, {"measurement": "HLM stability (% loss of parent compound at 1 h)", "setting": "[3]", "result": 57, "unit": "%"}, {"measurement": "Induction of HIV-1 transcription in U1 cells (in words)", "setting": "HIV-1 RNA in U1 cells", "result": "induced HIV-1 transcription"}, {"measurement": "MLM stability (% loss of parent compound at 1 h)", "setting": "[4]", "result": 28, "unit": "%"}, {"measurement": "Max. fold induction, 24STNLSG", "setting": "[5]", "result": "up to 80 fold"}, {"measurement": "Max. fold induction, 24STNLSG", "setting": "[5]; listed as Cmpd 1", "result": 80, "unit": "fold"}, {"measurement": "EC2X, 24STNLSG", "setting": "[5]", "result": "1.5 ± 0.7", "unit": "µM"}, {"measurement": "CC50 at 72 h", "setting": "[6]; [7]", "result": "5.2 ± 1.1", "unit": "µM"}, {"measurement": "selectivity ratio at 72 h", "setting": "[6]; SupT1 cells, with regards to respective EC2X (SEAP reporter)", "result": "≥ 3"}, {"measurement": "CC50 at 72 h", "setting": "[6]; T cells (SupT1) and PBMCs, read-out: CC50 across cytotoxicity assays", "result": "5 to 18", "unit": "µM"}, {"measurement": "IL-2 secretion by PBMCs (in words)", "setting": "IL-2 secretion by PBMCs", "result": "neither Compound 1 nor 2 increased secretion of IL-2"}]}
{"smiles": "Nc1ccc2[nH]c(-c3ccc(-c4nc5ccc(N)cc5o4)cc3)nc2c1", "note": "[Compound 2]", "values": [{"measurement": "Effect on BLZF1 mRNA (EBV)", "setting": "[1]", "result": "little effect"}, {"measurement": "Induction of HIV-1 transcription in ACH-2 cells (in words)", "setting": "HIV-1 RNA in ACH-2 cells", "result": "induced HIV-1 transcription"}, {"measurement": "EC10X, ACH-2", "setting": "HIV-1 RNA in ACH-2 cells", "result": "0.97 ± 0.50", "unit": "µM"}, {"measurement": "Induction of NF-κB driven reporter (in words)", "setting": "[2]", "result": "Neither Compound 1 nor Compound 2 induced"}, {"measurement": "HLM stability (% loss of parent compound at 1 h)", "setting": "[3]", "result": 61, "unit": "%"}, {"measurement": "Induction of HIV-1 transcription in U1 cells (in words)", "setting": "HIV-1 RNA in U1 cells", "result": "induced HIV-1 transcription"}, {"measurement": "MLM stability (% loss of parent compound at 1 h)", "setting": "[4]", "result": 53, "unit": "%"}, {"measurement": "Max. fold induction, 24STNLSG", "setting": "[5]", "result": 76, "unit": "fold"}, {"measurement": "EC2X, 24STNLSG", "setting": "[5]", "result": "2.7 ± 2.3", "unit": "µM"}, {"measurement": "CC50 at 72 h", "setting": "[6]; [7]", "result": "> 100", "unit": "µM"}, {"measurement": "selectivity ratio at 72 h", "setting": "[6]; SupT1 cells", "result": "≥ 3"}, {"measurement": "IL-2 secretion by PBMCs (in words)", "setting": "IL-2 secretion by PBMCs", "result": "neither Compound 1 nor 2 increased secretion of IL-2"}]}
